Test results taken from US4493785A, “Anthraquinone compounds” (Imperial Chemical Industries PLC, priority 1982, dated 1985).

Tests used:
Type in all cases: physicochemical
[1] = Order parameter (S) of the dye in liquid crystal material; settings: for Order Parameter (S): liquid crystal material E 43, 20° C.
Method: (§1) (i) Order parameters, solubilities and stabilities reported in Tables I to V were measured in the liquid crystal material, E 43, which is referred to as Host B in UK Specification No. 2081736A and is available from BDH Ltd of Poole, Dorset. Measurements were made at 20° C. unless otherwise indicated.
(§2) (iii) The liquid crystal materials in Table V are:
(§3) ZLI 1695: Available from E. Merck Co, Darmstadt, W. Germany;
(§4) FBCO Ester: Host 12 of UK application No. 8205153.
(§5) (iv) In Table V "S" means order parameter and "Sol" means solubility (wt %) in the appropriate liquid crystal material.

Extinction coefficient = assay: Extinction coefficient
[2] = Solubility (wt %) of the dye in liquid crystal material; settings: for Solubility: liquid crystal material E 43, 20° C.
Method: as §1, §2, §3, §4, §5

[3] = Stability to irradiation with 1 kW phosphor-coated mercury vapour lamp; settings: E 43, 1 kW mercury vapour lamp, 30° C.
Method: as §1
(ii) Stabilities were measured as the percentage decrease in absorption at the absorption maximum after the indicated period of irradiation with a 1 kW phosphor-coated, mercury vapour lamp at 30° C.

[4] = liquid crystal material FBCO Ester, 20° C.
[5] = liquid crystal material ZLI 1132, 20° C.
[6] = liquid crystal material ZLI 1695, 20° C.

## CCC(C)Cc1cc(N)c2c(c1O)C(=O)c1c(O)c(CC(C)CC)cc(N)c1C2=O (centres unmarked) [--CH(CH3)CH2 CH3]
[1]
  Order Parameter (S): 0.68

## CCCCCc1cc(N)c2c(c1O)C(=O)c1c(O)c(CCCCC)cc(NC)c1C2=O [Example 6b]
[1]
  Order Parameter (S): 0.72
Extinction coefficient; at 675 nm
  extinction coefficient: 23,785
[2]
  Solubility: 3.3 wt %

## CCCCCc1cc(N)c2c(c1O)C(=O)c1c(O)c(CCCCC)cc(N)c1C2=O [Example 1c, 2,7-Di-n-pentyl-4,5-diamino-chrysazin]
[1]
  Order Parameter (S): 0.77
[1]; [4]
  S (order parameter): 0.69
[1]; [5]
  S (order parameter): 0.77
[1]; [6]
  S (order parameter): 0.79
[3]; 100 hr irradiation
  Stability (percentage decrease in absorption at the absorption maximum): 97%
[3]; 2000 hr irradiation
  Stability (percentage decrease in absorption at the absorption maximum): 73%
[2]
  Solubility: 8.0 wt %
[2]; [4]
  Sol (solubility): 3 wt %
[2]; [5]
  Sol (solubility): 10.0 wt %
[2]; [6]
  Sol (solubility): 6.5 wt %

## CCCCCCc1cc(N)c2c(c1O)C(=O)c1c(O)c(CCCCCC)cc(N)c1C2=O [Example 3, 2,7-Di-n-hexyl-4,5-diaminochrysazin]
[1]
  Order Parameter (S): 0.76
[2]
  Solubility: 4.3 wt %

## CCCCCCCc1cc(N)c2c(c1O)C(=O)c1c(O)c(CCCCCCC)cc(NC)c1C2=O [Example 5b, 2,7-di-n-heptyl-4-amino-5-methylaminochrysazin]
[1]
  Order Parameter (S): 0.68
Extinction coefficient; at 675 nm
  extinction coefficient: 19,522
[2]
  Solubility: 0.5 wt %

## CC(CCCc1cc(N)c2c(c1O)C(=O)c1c(O)c(CCCC(C)CC(C)(C)C)cc(N)c1C2=O)CC(C)(C)C (centres unmarked) [--C2 H4 CH(CH3)CH2 C(CH3)3, reference compound]
[1]
  Order Parameter (S): 0.71
[2]
  Solubility: 1.6 wt %

## CCCCCCCc1cc(N)c2c(c1O)C(=O)c1c(O)c(CCCCCCC)cc(N)c1C2=O [Example 2c, 2,7-Di-n-heptyl-4,5-diaminochrysazin]
[1]
  Order Parameter (S): 0.78
[1]; [4]
  S (order parameter): 0.70
[1]; [5]
  S (order parameter): 0.78
[1]; [6]
  S (order parameter): 0.80
[3]; 400 hr irradiation
  Stability (percentage decrease in absorption at the absorption maximum): 92%
[3]; 2000 hr irradiation
  Stability (percentage decrease in absorption at the absorption maximum): 87%
[2]
  Solubility: 5.5 wt %
[2]; [4]
  Sol (solubility): 3 wt %
[2]; [5]
  Sol (solubility): 7.0 wt %

## CCCCCc1cc(NC)c2c(c1O)C(=O)c1c(O)c(CCCCC)cc(NC)c1C2=O [Example 6c]
[1]
  Order Parameter (S): 0.66
[2]
  Solubility: 0.9 wt %

## CCCCCCCc1cc(N)c2c(c1O)C(=O)c1c(N)cc(CCCCCCC)c(O)c1C2=O [n-hexyl, Comparative Dyes (Formula B), reference compound]
[2]
  Solubility: < 0.01 wt %

## CNc1cc(CC(C)C)c(O)c2c1C(=O)c1c(NC)cc(CC(C)C)c(O)c1C2=O [iso-propyl, Comparative Dye, TABLE III]
[1]
  Order Parameter (S): 0.54

## CNc1cc(CC(C)C)c(O)c2c1C(=O)c1c(N)cc(CC(C)C)c(O)c1C2=O [iso-propyl, Comparative Dye, TABLE II]
[1]
  Order Parameter (S): 0.63

## CCC(CC)Cc1cc(N)c2c(c1O)C(=O)c1c(O)c(CC(CC)CC)cc(N)c1C2=O [--CH(C2 H5)2]
[1]
  Order Parameter (S): 0.66

## CCCCCCCCc1cc(N)c2c(c1O)C(=O)c1c(O)c(CCCCCCCC)cc(N)c1C2=O [Example 4, 2,7-di-n-octyl-4,5-diaminochrysazin]
[1]
  Order Parameter (S): 0.73
[2]
  Solubility: 13.0 wt %

## CCCCCCCc1cc(NC)c2c(c1O)C(=O)c1c(O)c(CCCCCCC)cc(NC)c1C2=O [Example 5c, 2,7-di-n-heptyl-4,5-di(methylamino)chrysazin]
[1]
  Order Parameter (S): 0.67
Extinction coefficient; at 575 nm
  extinction coefficient: 22,100
[2]
  Solubility: 0.5 wt %
